Results on 31 compounds are retold here after patent publication US20050197350A1, “Novel quinoline, tetrahydroquinazoline, and pyrimidine derivatives and methods of treatment related to the use thereof” (TAISHO PHARMACEUTICAL CO., LTD., priority 2003, published 2005).

This experiment concerns MCH receptors. The experiment can be described thus: MCH receptor activity class (method not given). The following applies: class by percent of control at 10^−7 M or IC50.

For `Cc1cc(C(=O)N[C@H]2CC[C@@H](Nc3nc(C)c(C)c(N(C)C)n3)CC2)ccc1Br` [compound 2852, 4-bromo-N-(cis-4-{[4-(dimethylamino)-5,6-dimethylpyrimidin-2-yl]amino}cyclohexyl)-3-methylbenzamide], the class is listed as 1 (Class 1: The value of percent of control at 10^−7 M was less than 40% or the value of IC50 was less than 50 nM.).

With `Cc1ccc(C(=O)N[C@H]2CC[C@@H](Nc3nc(C)c(C)c(N(C)C)n3)CC2)cc1F` [compound 2853, N-(cis-4-{[4-(dimethylamino)-5,6-dimethylpyrimidin-2-yl]amino}cyclohexyl)-3-fluoro-4-methylbenzamide], the class was 1 (Class 1: The value of percent of control at 10^−7 M was less than 40% or the value of IC50 was less than 50 nM.).

As to `Cc1cc(C(=O)N[C@H]2CC[C@@H](Nc3nc(C)c(C)c(N(C)C)n3)CC2)ccc1F` [compound 2854, N-(cis-4-{[4-(dimethylamino)-5,6-dimethylpyrimidin-2-yl]amino}cyclohexyl)-4-fluoro-3-methylbenzamide], the class was 1 (Class 1: The value of percent of control at 10^−7 M was less than 40% or the value of IC50 was less than 50 nM.).

Take `CCc1cccc(C(=O)N[C@H]2CC[C@@H](Nc3nc(C)c(C)c(N(C)C)n3)CC2)c1` [compound 2855, N-(cis-4-{[4-(dimethylamino)-5,6-dimethylpyrimidin-2-yl]amino}cyclohexyl)-3-ethylbenzamide]: the class is 2 (Class 2: The value of percent of control at 10^−7 M was from 40% to 60% or the value of IC′50 was from 50 nM to 200 nM.).

As to `Cc1nc(N[C@H]2CC[C@@H](NC(=O)c3cccc(OC(F)(F)F)c3)CC2)nc(N(C)C)c1C` [compound 2856], the class is listed as 1 (Class 1: The value of percent of control at 10^−7 M was less than 40% or the value of IC50 was less than 50 nM.).

As to `Cc1nc(N[C@H]2CC[C@@H](NC(=O)c3cncc(Br)c3)CC2)nc(N(C)C)c1C` [compound 2857, 5-bromo-N-(cis-4-{[4-(dimethylamino)-5,6-dimethylpyrimidin-2-yl]amino}cyclohexyl)nicotinamide], the class is on record as 1 (Class 1: The value of percent of control at 10^−7 M was less than 40% or the value of IC50 was less than 50 nM.).

In the case of `Cc1ccc(C(=O)N[C@H]2CC[C@@H](Nc3nc(C)c(C)c(N(C)C)n3)CC2)s1` [compound 2858], the class is listed as 1 (Class 1: The value of percent of control at 10^−7 M was less than 40% or the value of IC50 was less than 50 nM.).

Take `Cc1nc(N[C@H]2CC[C@@H](NC(=O)c3ccc(C(F)(F)F)nc3)CC2)nc(N(C)C)c1C` [compound 2859]: the class is reported as 2 (Class 2: The value of percent of control at 10^−7 M was from 40% to 60% or the value of IC′50 was from 50 nM to 200 nM.).

On to `CCOc1cc(OCC)cc(C(=O)N[C@H]2CC[C@@H](Nc3nc(C)c(C)c(N(C)C)n3)CC2)c1` [compound 2860], for which the class is 1 (Class 1: The value of percent of control at 10^−7 M was less than 40% or the value of IC50 was less than 50 nM.).

`CCOc1cccc(C(=O)N[C@H]2CC[C@@H](Nc3nc(C)c(C)c(N(C)C)n3)CC2)c1` [compound 2861]: the class is reported as 1 (Class 1: The value of percent of control at 10^−7 M was less than 40% or the value of IC50 was less than 50 nM.).

For `Cc1nc(N[C@H]2CC[C@@H](NC(=O)c3cccc(OC(C)C)c3)CC2)nc(N(C)C)c1C` [compound 2862], the class is 1 (Class 1: The value of percent of control at 10^−7 M was less than 40% or the value of IC50 was less than 50 nM.).

As to `Cc1nc(N[C@H]2CC[C@@H](NC(=O)c3cccc(O)n3)CC2)nc(N(C)C)c1C` [compound 2863], the class was 3 (Class 3 The value of percent of control at 10^−7 M was more than 60% or the value of IC50 was more than 200 nM.).

Take `Cc1nc(N[C@H]2CC[C@@H](NC(=O)c3ccc(F)c(F)c3)CC2)nc(N(C)C)c1C` [compound 2864]: the class was 1 (Class 1: The value of percent of control at 10^−7 M was less than 40% or the value of IC50 was less than 50 nM.).

For the compound `Cc1nc(N[C@H]2CC[C@@H](NCc3cccc(OC(F)(F)F)c3)CC2)nc(N(C)C)c1C` [compound 2865], the class is listed as 3 (Class 3 The value of percent of control at 10^−7 M was more than 60% or the value of IC50 was more than 200 nM.).

On to `Cc1nc(N[C@H]2CC[C@@H](NCc3ccc(F)c(F)c3)CC2)nc(N(C)C)c1C` [compound 2866], for which the class is reported as 2 (Class 2: The value of percent of control at 10^−7 M was from 40% to 60% or the value of IC′50 was from 50 nM to 200 nM.).

Turning to `CCOc1ccccc1NC(=O)N[C@H]1CC[C@@H](Nc2nc(C)c(C)c(N(C)C)n2)CC1` [compound 2868], the class is 1 (Class 1: The value of percent of control at 10^−7 M was less than 40% or the value of IC50 was less than 50 nM.).

`Cc1nc(N[C@H]2CC[C@@H](NC(=O)Nc3ccc(OCc4ccccc4)cc3)CC2)nc(N(C)C)c1C` [compound 2869]: the class is listed as 3 (Class 3 The value of percent of control at 10^−7 M was more than 60% or the value of IC50 was more than 200 nM.).

As for `Cc1cnc(N[C@H]2CC[C@@H](NC(=O)C3(c4ccc(Cl)cc4)CC3)CC2)nc1N(C)C` [compound 2870], the class is 1 (Class 1: The value of percent of control at 10^−7 M was less than 40% or the value of IC50 was less than 50 nM.).

`Cc1cnc(N[C@H]2CC[C@@H](NC(=O)C3(c4ccc(Cl)cc4Cl)CC3)CC2)nc1N(C)C` [compound 2871]: the class was 1 (Class 1: The value of percent of control at 10^−7 M was less than 40% or the value of IC50 was less than 50 nM.).

As for `Cc1cnc(N[C@H]2CC[C@@H](NC(=O)Cc3ccc(Cl)cc3)CC2)nc1N(C)C` [compound 2872, 2-(4-chlorophenyl)-N-(cis-4-{[4-(dimethylamino)-5-methylpyrimidin-2-yl]amino}cyclohexyl)acetamide], the class is 1 (Class 1: The value of percent of control at 10^−7 M was less than 40% or the value of IC50 was less than 50 nM.).

`Cc1ccc(C2(C(=O)N[C@H]3CC[C@@H](Nc4ncc(C)c(N(C)C)n4)CC3)CC2)cc1` [compound 2873]: the class is 1 (Class 1: The value of percent of control at 10^−7 M was less than 40% or the value of IC50 was less than 50 nM.).

Regarding `COc1ccc(C2(C(=O)N[C@H]3CC[C@@H](Nc4ncc(C)c(N(C)C)n4)CC3)CC2)cc1` [compound 2875], the class is listed as 1 (Class 1: The value of percent of control at 10^−7 M was less than 40% or the value of IC50 was less than 50 nM.).

As to `COc1cccc(OCC(=O)N[C@H]2CC[C@@H](Nc3ncc(C)c(N(C)C)n3)CC2)c1` [compound 2877, N-(cis-4-{[4-(dimethylamino)-5-methylpyrimidin-2-yl]amino}cyclohexyl)-2-(3-methoxyphenoxy)acetamide], the class is given as 1 (Class 1: The value of percent of control at 10^−7 M was less than 40% or the value of IC50 was less than 50 nM.).

Take `Cc1cnc(N[C@H]2CC[C@@H](NC(=O)COc3cccc(C(F)(F)F)c3)CC2)nc1N(C)C` [compound 2878, N-(cis-4-{[4-(dimethylamino)-5-methylpyrimidin-2-yl]amino}cyclohexyl)-2-[3-(trifluoromethyl)phenoxy]acetamide]: the class is given as 1 (Class 1: The value of percent of control at 10^−7 M was less than 40% or the value of IC50 was less than 50 nM.).

`Cc1cnc(N[C@H]2CC[C@@H](NC(=O)COc3cccc(Cl)c3)CC2)nc1N(C)C` [compound 2879, 2-(3-chlorophenoxy)-N-(cis-4-{[4-(dimethylamino)-5-methylpyrimidin-2-yl]amino}cyclohexyl)acetamide]: the class was 1 (Class 1: The value of percent of control at 10^−7 M was less than 40% or the value of IC50 was less than 50 nM.).

Consider `Cc1cccc(Oc2ncccc2C(=O)N[C@H]2CC[C@@H](Nc3ncc(C)c(N(C)C)n3)CC2)c1` [compound 2885, N-(cis-4-{[4-(dimethylamino)-5-methylpyrimidin-2-yl]amino}cyclohexyl)-2-(3-methylphenoxy)nicotinamide], for which the class is 1 (Class 1: The value of percent of control at 10^−7 M was less than 40% or the value of IC50 was less than 50 nM.).

As for `Cc1cnc(N[C@H]2CC[C@@H](NC(=O)c3cccnc3Oc3cccc(F)c3)CC2)nc1N(C)C` [compound 2886, N-(cis-4-{[4-(dimethylamino)-5-methylpyrimidin-2-yl]amino}cyclohexyl)-2-(3-fluorophenoxy)nicotinamide], the class is on record as 1 (Class 1: The value of percent of control at 10^−7 M was less than 40% or the value of IC50 was less than 50 nM.).

In the case of `COc1cccc(Oc2ncccc2C(=O)N[C@H]2CC[C@@H](Nc3ncc(C)c(N(C)C)n3)CC2)c1` [compound 2887, N-(cis-4-{[4-(dimethylamino)-5-methylpyrimidin-2-yl]amino}cyclohexyl)-2-(3-methoxyphenoxy)nicotinamide], the class is 1 (Class 1: The value of percent of control at 10^−7 M was less than 40% or the value of IC50 was less than 50 nM.).

With `COc1ccc(Oc2ncccc2C(=O)N[C@H]2CC[C@@H](Nc3ncc(C)c(N(C)C)n3)CC2)cc1` [compound 2888, N-(cis-4-{[4-(dimethylamino)-5-methylpyrimidin-2-yl]amino}cyclohexyl)-2-(4-methoxyphenoxy)nicotinamide], the class is recorded as 1 (Class 1: The value of percent of control at 10^−7 M was less than 40% or the value of IC50 was less than 50 nM.).

Take `Cc1cnc(N[C@H]2CC[C@@H](NC(=O)c3cccnc3Oc3ccc(I)cc3)CC2)nc1N(C)C` [compound 2889, N-(cis-4-{[4-(dimethylamino)-5-methylpyrimidin-2-yl]amino}cyclohexyl)-2-(4-iodophenoxy)nicotinamide]: the class is listed as 1 (Class 1: The value of percent of control at 10^−7 M was less than 40% or the value of IC50 was less than 50 nM.).

In the case of `COc1ccccc1Oc1ncccc1C(=O)N[C@H]1CC[C@@H](Nc2ncc(C)c(N(C)C)n2)CC1` [compound 2890, N-(cis-4-{[4-(dimethylamino)-5-methylpyrimidin-2-yl]amino}cyclohexyl)-2-(2-methoxyphenoxy)nicotinamide], the class is listed as 1 (Class 1: The value of percent of control at 10^−7 M was less than 40% or the value of IC50 was less than 50 nM.).
